Data taken from US20240174637A1, “DEGRADERS OF GRK2 AND USES THEREOF” (Sonata Therapeutics, Inc., priority 2021, published 2024).
Where two headings read alike, the source gives them in different places.

Experiments:
GRK2 [1] = molecular target: T1, GRK2 (Homo sapiens, UniProt P25098); test: GRK2 Inhibition Assay (TR-FRET, Example 1); assay type: biochemical
T1 sequence (P25098 1-689): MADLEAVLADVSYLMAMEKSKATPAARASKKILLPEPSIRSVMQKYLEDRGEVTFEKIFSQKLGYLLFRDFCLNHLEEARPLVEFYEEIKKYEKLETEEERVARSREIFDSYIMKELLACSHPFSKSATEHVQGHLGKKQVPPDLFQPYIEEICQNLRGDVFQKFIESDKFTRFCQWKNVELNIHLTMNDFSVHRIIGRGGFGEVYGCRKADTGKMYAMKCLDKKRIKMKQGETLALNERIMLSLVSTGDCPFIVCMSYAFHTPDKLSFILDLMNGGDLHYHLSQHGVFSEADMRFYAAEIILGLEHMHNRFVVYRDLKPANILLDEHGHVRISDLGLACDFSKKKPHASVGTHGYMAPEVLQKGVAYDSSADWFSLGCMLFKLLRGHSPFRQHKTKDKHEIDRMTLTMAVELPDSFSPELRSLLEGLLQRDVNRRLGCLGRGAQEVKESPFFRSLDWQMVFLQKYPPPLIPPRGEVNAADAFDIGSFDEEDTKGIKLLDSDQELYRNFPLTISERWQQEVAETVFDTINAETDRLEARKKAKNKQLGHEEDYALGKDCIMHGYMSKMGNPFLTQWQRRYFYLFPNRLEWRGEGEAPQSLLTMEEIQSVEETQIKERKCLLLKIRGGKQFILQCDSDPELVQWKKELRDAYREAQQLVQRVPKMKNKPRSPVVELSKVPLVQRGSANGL
Protocol: Assay: GRK2 enzyme (1 nM final concentration) was diluted in 25 mM HEPES, 10 mM MgCl2, 2 mM DTT, 0.01% Tween-20, and 1 mM EGTA. Then the GRK2 mixture was added into ProxiPlate-384 white plate and pre-incubated for 30 min with test compounds at room temperature. ATP (7 μM final concentration) and Ulight TopoIIα (50 nM final concentration) were added into the assay plate to initiate the reaction and the mixture was incubated at room temperature for 90 min. Then, Eu anti-TopoIIα (0.12 nM final concentration), BSA (0.01% final concentration), and EDTA (11 mM final concentration) in LANCE assay buffer were added into each well. After 60 min incubation time at room temperature, TR-FRET signal was measured by EnVision plate reader.

PAXF1657 EV = test: 7-day cellular proliferation assay (CellTiter-Glo), PAXF1657 EV; assay type: cell-based
In short: (§1)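 PAXF1657 pancreatic cancer cells (GRK2-overexpressing vs empty vector; CRISPR GRK2 knockout vs non-targeting control) were seeded at 500 cells/well in RPMI1640/10% FBS, then given a 10-point series, 30 μM-0.0002 μM in 0.3% DMSO. Medium and compound were refreshed after 3 days; CellTiter-Glo luminescence was read at day 7.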

PAXF1657 KO Clone #4 = test: 7-day cellular proliferation assay (CellTiter-Glo), PAXF1657 KO Clone #4; assay type: cell-based
In short: as §1

GRK2 [2] = molecular target: T1, GRK2; test: GRK2 Degradation Assay and Western Blot in PAXF1657 cells; assay type: cell-based; parameters: endogenous in cells; host or cells: PAXF1657
In short: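 PAXF1657 cells grown to 70% confluency, then treated with compounds at 0–10 μM for 6 to 24 h at 37 °C. Lysates in PBS with 1% NP40 run on SDS-PAGE. GRK2 protein detected by western blot with β-actin as loading reference, using ECL chemiluminescence.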

[3] = Table 4, Example 1 assay, read-out: Enzymatic GRK2 IC50: Av IC50 GRK2
[4] = proliferation, read-out: GeoMean IC50 (UM) PAXF1657 EV
[5] = proliferation, read-out: GeoMean IC50 (uM) PAXF1657 KO Clone #4
[6] = Conc 0.3 uM, read-out: Degradation Assay - 3 point: Degradation (%)
[7] = Conc 1 uM, read-out: Degradation Assay - 3 point: Degradation (%)
[8] = Conc 3 uM, read-out: Degradation Assay - 3 point: Degradation (%)
[9] = TR-FRET, 7 μM ATP, read-out: Enzymatic GRK2 Assay: IC50 (nM) (Example 1)
[10] = 168 h, 7-day, read-out: 7-day proliferation assay: IC50 GeoMean (uM) [Cell Line: PAXF1657 EV]
[11] = 168 h, 7-day, read-out: 7-day proliferation assay: IC50 GeoMean (uM) [Cell Line: PAXF1657 KO Clone #4]
[12] = 1 uM, PAXF1657 EV, 24 hrs, read-out: % GRK2 degradation at 1 uM in PAXF1657 EV (24 hrs)
[13] = 3 uM, PAXF1657 EV, 24 hrs, read-out: % GRK2 degradation at 3 uM in PAXF1657 EV (24 hrs)

IC50 (GRK2 [1]; [3]) [nM] | inhibition at 0.3 µM (GRK2 [2]; [6]) [%] | inhibition at 1 µM (GRK2 [2]; [7]) [%] | inhibition at 3 µM (GRK2 [2]; [8]) [%] | IC50 (GRK2 [1]; [9]) [nM] | inhibition at 1 µM (GRK2 [2]; [12]) [%] | inhibition at 3 µM (GRK2 [2]; [13]) [%] | % GRK2 degradation at 0.1 uM in PAXF1657 EV (24 hrs) (GRK2 [2]; 0.1 uM, PAXF1657 EV, 24 hrs) [%] | inhibition at 0.3 µM (GRK2 [2]; 0.3 uM, PAXF1657 EV, 24 hrs, read-out: % GRK2 degradation at 0.3 uM in PAXF1657 EV (24 hrs)) [%] | % GRK2 degradation at 10 uM in PAXF1657 EV (24 hrs) (GRK2 [2]; 10 uM, PAXF1657 EV, 24 hrs) [%] | GRK2 degradation, dose dependence (FIGS. 1A-1D) (GRK2 [2]; 24-hour treatment in PAXF1657 cells) | Compound | IC50 (PAXF1657 EV; [4]) [µM] | IC50 (PAXF1657 KO Clone #4; [5]) [µM] | IC50 (PAXF1657 EV; [10]) [µM] | IC50 (PAXF1657 KO Clone #4; [11]) [µM] | DC50 (GRK2 [2]; PAXF1657, 24 h, read-out: Degradation Assay - Full Dose Response: IC50 (uM) [cell line: PAXF1657, time point: 24 h]) [µM]
211 | 1.79 | 17.5 | 19.2 | – | – | – | – | – | – | – | C[C@H](NC(=O)c1cccc(NCc2nnc(-c3ccncn3)n2C)c1)c1cccc(OCCCCCOCCCOCC(=O)Nc2cccc3c2CN(C2CCC(=O)NC2=O)C3=O)c1 (stereo partly drawn) [Compound D185, N-((1S)-1-(3-((5-(3-(2-((2-(2,6-dioxopiperidin-3-yl)-1-oxoisoindolin-4-yl)amino)-2-oxoethoxy)propoxy)pentyl)oxy)phenyl)ethyl)-3-(((4-methyl-5-(pyrimidin-4-yl)-4H-1,2,4-triazol-3-yl)methyl)amino)benzamide] | > 30 | > 30 | – | – | –
25 | 92 | 87 | 83 | – | – | – | – | – | – | – | C[C@@H](NC(=O)c1cccc(NCc2nnc(-c3ccncn3)n2C)c1)c1cccc(OCCCCCOCCCOCCOc2ccc3c(c2)CN(C2CCC(=O)NC2=O)C3=O)c1 (stereo partly drawn) [Compound D160, N-((1R)-1-(3-((5-(3-(2-((2-(2,6-dioxopiperidin-3-yl)-1-oxoisoindolin-5-yl)oxy)ethoxy)propoxy)pentyl)oxy)phenyl)ethyl)-3-(((4-methyl-5-(pyrimidin-4-yl)-4H-1,2,4-triazol-3-yl)methyl)amino)benzamide] | 0.05 | > 30 | – | – | –
28.7 | 89.7 | 90.6 | 76.2 | – | – | – | – | – | – | – | C[C@@H](NC(=O)c1cccc(NCc2nnc(-c3ccncn3)n2C)c1)c1cccc(OCCCCCOCCCOCCNc2ccc3c(c2)CN(C2CCC(=O)NC2=O)C3=O)c1 (stereo partly drawn) [Compound D171, N-((1R)-1-(3-(5-(3-(2-(2-(2,6-dioxopiperidin-3-yl)-1-oxoisoindolin-5-ylamino)ethoxy)propoxy)pentyloxy)phenyl)ethyl)-3-((4-methyl-5-(pyrimidin-4-yl)-4H-1,2,4-triazol-3-yl)methylamino)benzamide] | 0.09 | > 30 | – | – | –
– | – | – | – | < 100 | 16 | 24 | – | – | – | – | Cc1ncsc1-c1ccc(CNC(=O)[C@@H]2C[C@@H](O)CN2C(=O)[C@@H](NC(=O)CCCc2cn(CCCCCCOc3cccc(CNC(=O)c4cccc(NCc5nnc(-c6ccncn6)n5C)c4)c3)nn2)C(C)(C)C)cc1 [Compound D86] | – | – | > 10 | > 10 | –
– | – | – | – | < 100 | 79 | 83 | 26 | 62 | 77 | Dose dependent | Cn1c(CNc2cccc(C(=O)NCc3cccc(OCCCCCOCCCOCC(=O)Nc4cccc5c4CN(C4CCC(=O)NC4=O)C5=O)c3)c2)nnc1-c1ccncn1 (stereo not drawn) [Compound D64, N-(3-((5-(3-(2-((2-(2,6-dioxopiperidin-3-yl)-1-oxoisoindolin-4-yl)amino)-2-oxoethoxy)propoxy)pentyl)oxy)benzyl)-3-(((4-methyl-5-(pyrimidin-4-yl)-4H-1,2,4-triazol-3-yl)methyl)amino)benzamide] | – | – | > 10 | > 10 | –
24.1 | 33 | 24.4 | 10.7 | – | – | – | – | – | – | – | C[C@@H](NC(=O)c1cccc(NCc2nnc(-c3ccncn3)n2C)c1)c1cccc(OCC(=O)N2CCN(c3ccc4c(c3)CN(C3CCC(=O)NC3=O)C4=O)CC2)c1 (stereo partly drawn) [Compound D176, N-((1R)-1-(3-(2-(4-(2-(2,6-dioxopiperidin-3-yl)-1-oxoisoindolin-5-yl)piperazin-1-yl)-2-oxoethoxy)phenyl)ethyl)-3-((4-methyl-5-(pyrimidin-4-yl)-4H-1,2,4-triazol-3-yl)methylamino)benzamide] | 8.02 | > 30 | – | – | –
7.31 | 43 | 74 | 85 | – | – | – | – | – | – | – | C[C@@H](NC(=O)c1cccc(NCc2nnc(-c3ccncn3)n2C)c1)c1cccc(OCCCCCOCCCOCC(=O)N2CCN(c3cc4c(cc3F)C(=O)N(C3CCC(=O)NC3=O)C4=O)CC2)c1 (stereo partly drawn) [Compound D180, N-((1R)-1-(3-((5-(3-(2-(4-(2-(2,6-dioxopiperidin-3-yl)-6-fluoro-1,3-dioxoisoindolin-5-yl)piperazin-1-yl)-2-oxoethoxy)propoxy)pentyl)oxy)phenyl)ethyl)-3-(((4-methyl-5-(pyrimidin-4-yl)-4H-1,2,4-triazol-3-yl)methyl)amino)benzamide] | 0.82 | > 30 | – | – | –
> 1000 | 24 | 28 | 38 | – | – | – | – | – | – | – | C[C@H](NC(=O)c1cccc(NCc2nnc(-c3ccncn3)n2C)c1)c1ccc(OCCCCCCOCCOCCOCCCCCC(=O)Nc2cccc3c2CN(C2CCC(=O)NC2=O)C3=O)cc1 (stereo partly drawn) [Compound D152, N-((1S)-1-(4-(6-(2-(2-(6-(2-(2,6-dioxopiperidin-3-yl)-1-oxoisoindolin-4-ylamino)-6-oxohexyloxy)ethoxy)ethoxy)hexyloxy)phenyl)ethyl)-3-((4-methyl-5-(pyrimidin-4-yl)-4H-1,2,4-triazol-3-yl)methylamino)benzamide] | 12.7 | > 30 | – | – | –
24.9 | 36.7 | 78.1 | 86 | – | – | – | – | – | – | – | C[C@@H](NC(=O)c1cccc(NCc2nnc(-c3ccncn3)n2C)c1)c1cccc(OCCCCCCOCCOCCOCCCCCC(=O)N2CCN(c3ccc4c(c3)CN(C3CCC(=O)NC3=O)C4=O)CC2)c1 (stereo partly drawn) [Compound D191, N-((1R)-1-(3-((6-(2-(2-((6-(4-(2-(2,6-dioxopiperidin-3-yl)-1-oxoisoindolin-5-yl)piperazin-1-yl)-6-oxohexyl)oxy)ethoxy)ethoxy)hexyl)oxy)phenyl)ethyl)-3-(((4-methyl-5-(pyrimidin-4-yl)-4H-1,2,4-triazol-3-yl)methyl)amino)benzamide] | 0.32 | > 30 | – | – | –

Compound | IC50 (GRK2 [1]; [3]) [nM] | inhibition at 0.3 µM (GRK2 [2]; [6]) [%] | inhibition at 1 µM (GRK2 [2]; [7]) [%] | inhibition at 3 µM (GRK2 [2]; [8]) [%] | IC50 (GRK2 [1]; [9]) [nM] | inhibition at 1 µM (GRK2 [2]; [12]) [%] | inhibition at 3 µM (GRK2 [2]; [13]) [%] | % GRK2 degradation at 0.1 uM in PAXF1657 EV (24 hrs) (GRK2 [2]; 0.1 uM, PAXF1657 EV, 24 hrs) [%] | inhibition at 0.3 µM (GRK2 [2]; 0.3 uM, PAXF1657 EV, 24 hrs, read-out: % GRK2 degradation at 0.3 uM in PAXF1657 EV (24 hrs)) [%] | % GRK2 degradation at 10 uM in PAXF1657 EV (24 hrs) (GRK2 [2]; 10 uM, PAXF1657 EV, 24 hrs) [%] | GRK2 degradation, dose dependence (FIGS. 1A-1D) (GRK2 [2]; 24-hour treatment in PAXF1657 cells) | IC50 (PAXF1657 EV; [4]) [µM] | IC50 (PAXF1657 KO Clone #4; [5]) [µM] | IC50 (PAXF1657 EV; [10]) [µM] | IC50 (PAXF1657 KO Clone #4; [11]) [µM] | DC50 (GRK2 [2]; PAXF1657, 24 h, read-out: Degradation Assay - Full Dose Response: IC50 (uM) [cell line: PAXF1657, time point: 24 h]) [µM]
C[C@@H](NC(=O)c1cccc(NCc2nnc(-c3ccncn3)n2C)c1)c1ccc(OCCCCCCOCCOCCOCCCC(=O)N2CCN(c3ccc4c(c3)CN(C3CCC(=O)NC3=O)C4=O)CC2)cc1 (stereo partly drawn) [Compound D124, N-((1R)-1-(4-(6-(2-(2-(4-(4-(2-(2,6-dioxopiperidin-3-yl)-1-oxoisoindolin-5-yl)piperazin-1-yl)-4-oxobutoxy)ethoxy)ethoxy)hexyloxy)phenyl)ethyl)-3-((4-methyl-5-(pyrimidin-4-yl)-4H-1,2,4-triazol-3-yl)methylamino)benzamide] | 5.4 | 80.5 | 90.7 | 89.3 | – | – | – | – | – | – | – | 0.09 | > 30 | – | – | 0.1
